Data reported in US9540385B2, “Pyrrolopyrimidine compounds as kinase inhibitors” (Pharmacyclics LLC, priority 2012, dated 2017).

target: T1, BTK (Homo sapiens, UniProt Q06187); experiment: Btk in vitro inhibitory activity / inhibition of a panel of kinases (TR-FRET, mobility shift or radiometric filter binding); type: biochemical; settings: kinase assay by one of methods A, B or C
T1 construct: purified from insect cells as a full-length construct containing a N-terminal 6×-His tag; His6 (N); made in house; host or cells: insect cells (baculovirus, Sf21)
T1 sequence (Q06187 whole entry): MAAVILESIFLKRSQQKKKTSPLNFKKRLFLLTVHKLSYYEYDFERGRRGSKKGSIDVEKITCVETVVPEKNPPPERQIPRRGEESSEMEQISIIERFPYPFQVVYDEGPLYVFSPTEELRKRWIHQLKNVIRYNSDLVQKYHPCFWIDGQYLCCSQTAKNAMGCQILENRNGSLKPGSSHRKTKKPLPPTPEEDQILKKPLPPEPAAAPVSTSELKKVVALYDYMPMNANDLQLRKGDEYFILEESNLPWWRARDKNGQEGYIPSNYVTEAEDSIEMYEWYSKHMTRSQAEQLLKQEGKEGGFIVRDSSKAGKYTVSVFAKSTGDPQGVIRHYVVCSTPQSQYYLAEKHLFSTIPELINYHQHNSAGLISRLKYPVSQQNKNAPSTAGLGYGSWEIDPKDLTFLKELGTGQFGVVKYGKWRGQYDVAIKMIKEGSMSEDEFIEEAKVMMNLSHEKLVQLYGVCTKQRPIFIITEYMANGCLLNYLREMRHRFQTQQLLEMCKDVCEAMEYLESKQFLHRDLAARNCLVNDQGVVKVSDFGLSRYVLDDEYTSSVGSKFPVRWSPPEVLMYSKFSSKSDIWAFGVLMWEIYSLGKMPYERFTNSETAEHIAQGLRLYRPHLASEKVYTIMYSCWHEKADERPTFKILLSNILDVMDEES
Procedure: Btk kinase activity is determined using a time-resolved fluorescence resonance energy transfer (TR-FRET) methodology. Measurements are performed in a reaction volume of 50 μL using 96-well assay plates. Kinase enzyme, inhibitor, ATP (at the Km for the kinase), and 1 μM peptide substrate (Biotin-AVLESEEELYSSARQ-NH2) are incubated in a reaction buffer composed of 20 mM Tris, 50 mM NaCl, MgCl2 (5-25 mM depending on the kinase), MnCl2 (0-10 mM), 1 mM DTT, 0.1 mM EDTA, 0.01% bovine serum albumin, 0.005% Tween-20, and 10% DMSO at pH 7.4 for one hour. The reaction is quenched by the addition of 1.2 equivalents of EDTA (relative to divalent cation) in 25 μL of 1× Lance buffer (Perkin-Elmer). Streptavidin-APC (Perkin-Elmer) and Eu-labeled p-Tyr100 antibody (Perkin-Elmer) in 1× Lance buffer are added in a 25 μL volume to give final concentrations of 100 nM and 2.5 nM, respectively, and the mixture is allowed to incubate for one hour. The TR-FRET signal is measured on a multimode plate reader with an excitation wavelength (λEx) of 330 nm and detection wavelengths (λEm) of 615 and 665 nm. Activity is determined by the ratio of the fluorescence at 665 nm to that at 615 nm. For each compound, enzyme activity is measured at various concentrations of compound. Negative control reactions are performed in the absence of inhibitor in replicates of six, and two no-enzyme controls are used to determine baseline fluorescence levels. Inhibition constants, Ki(app), ware obtained using the program BatchKi (Kuzmic et al. (2000), Anal. Biochem. 286:45-50). IC50s are obtained according to the equation: IC50={Ki(app)/(1+[ATP]/Km^ATP)}+[E]total/2;
For all kinases, [ATP]=Km^ATP, [Btk]total=0.5 nM and [Lck]total=6 nM.
Kinase activity is measured in vitro using electrophoretic mobility shift assay. The kinase reactions are assembled in a total volume of 25 μL in 384 well plates. The reactions comprise: BTK enzyme (1 nM, N-terminal His6-tagged, recombinant, full-length, human BTK purified from baculovirus Sf21 insect cell system), inhibitor, ATP ([…] the apparent Km for the kinase), fluorescently labeled peptide substrate (1 μM, FAM-GEEPLYWSFPAKKK-NH2) in a reaction buffer composed of 100 mM HEPES, pH7.5, 5 mM MgCl2 1 mM DTT, 0.1% bovine serum albumin, 0.01% Triton X-100, and 1% DMSO. The reaction is incubated for one hour and is quenched by the addition of 45 μL of termination buffer (100 mM HEPES, pH7.5, 0.01% Triton X-100, 30 mM EDTA). The terminated reactions are analyzed using 12 channel LabChip® 3000 microfluidic detection instrument (Caliper Life Sciences). The enzymatic phosphorylation of the peptide results in a change in net charge, enabling electrophoretic separation of product from substrate peptide. As substrate and product peptides are separated, two peaks of fluorescence are observed. Change in the relative fluorescence intensity of the substrate and product peaks is the parameter measured, reflecting enzyme activity. In the presence of an inhibitor, the ratio between product and substrate is altered: the signal of the product decreases, while the signal of the substrate increases.
Activity in each sample is determined as the product to sum ratio (PSR):P/(S+P), where P is the peak height of the product peptide and S is the peak height of the substrate peptide. For each compound, enzyme activity is measured at various concentrations (12 concentrations of compound spaced by 3× dilution intervals). Negative control samples (0%-inhibition in the absence of inhibitor) and positive control samples (100%-inhibition, in the presence of 20 mM EDTA) are assembled in replicates of four and are used to calculate %-inhibition values for each inhibitor at each concentration. Percent inhibition (Pinh) is determined using following equation: […]

Structure (SMILES) | IC50
COCCN(C)C/C=C/C(=O)N1CC[C@@H](n2c(C)c(-c3ccc(Oc4ccccc4)cc3)c3c(N)ncnc32)C1 [Compound 61, (R,E)-1-(3-(4-amino-6-methyl-5-(4-phenoxyphenyl)-7H-pyrrolo[2,3-d]pyrimidin-7-yl)pyrrolidin-1-yl)-4-((2-methoxyethyl)(methyl)amino)but-2-en-1-one] | < 100 nM
Cc1c(-c2ccc(OCc3cnn[nH]3)cc2)c2c(N)ncnc2n1[C@@H]1CCN(C(=O)/C=C/CN(C)C2CC2)C1 [Compound 86, (R,E)-1-(3-(5-(4-((1H-1,2,3-triazol-5-yl)methoxy)phenyl)-4-amino-6-methyl-7H-pyrrolo[2,3-d]pyrimidin-7-yl)pyrrolidin-1-yl)-4-(cyclopropyl(methyl)amino)but-2-en-1-one] | < 100 nM
CN(C/C=C/C(=O)N1CC[C@@H](n2c(C(=O)O)c(-c3ccc(Oc4ccccc4)cc3)c3c(N)ncnc32)C1)C1CC1 [Compound 128, (R,E)-4-amino-7-(1-(4-(cyclopropyl(methyl)amino)but-2-enoyl)pyrrolidin-3-yl)-5-(4-phenoxyphenyl)-7H-pyrrolo[2,3-d]pyrimidine-6-carboxylic acid] | < 100 nM
Cc1c(-c2ccc(Oc3ccccc3)cc2)c2c(N)ncnc2n1[C@@H]1CCN(C(=O)/C=C/CN(C)[C@H]2CCOC2)C1 [Compound 129, (E)-1-((R)-3-(4-amino-6-methyl-5-(4-phenoxyphenyl)-7H-pyrrolo[2,3-d]pyrimidin-7-yl)pyrrolidin-1-yl)-4-(methyl((S)-tetrahydrofuran-3-yl)amino)but-2-en-1-one] | < 100 nM
CN(C/C=C/C(=O)N1CC[C@@H](n2c(C3CC3)c(-c3ccc(Oc4ccccc4)cc3)c3c(N)ncnc32)C1)C1CC1 [Compound 94, (R,E)-1-(3-(4-amino-6-cyclopropyl-5-(4-phenoxyphenyl)-7H-pyrrolo[2,3-d]pyrimidin-7-yl)pyrrolidin-1-yl)-4-(cyclopropyl(methyl)amino)but-2-en-1-one] | < 100 nM
Cc1c(-c2ccc(Oc3ccccc3)cc2)c2c(N)ncnc2n1[C@@H]1CCCN(C(=O)/C=C/CN(C)C2CC2)C1 [Compound 72, (R,E)-1-(3-(4-amino-6-methyl-5-(4-phenoxyphenyl)-7H-pyrrolo[2,3-d]pyrimidin-7-yl)piperidin-1-yl)-4-(cyclopropyl(methyl)amino)but-2-en-1-one] | < 100 nM
CN(C(=O)/C=C/CN(C)C1CC1)c1ccc(-n2c(Cl)c(-c3ccc(Cl)cc3)c3c(N)ncnc32)cc1 [Compound 31, (E)-N-(4-(4-amino-6-chloro-5-(4-chlorophenyl)-7H-pyrrolo[2,3-d]pyrimidin-7-yl)phenyl)-4-(cyclopropyl(methyl)amino)-N-methylbut-2-enamide] | < 100 nM
CN(C/C=C/C(=O)N1CC[C@@H](n2c(C(N)=O)c(-c3ccc(Oc4ccccc4)cc3)c3c(N)ncnc32)C1)C1CC1 [Compound 126, (R,E)-4-amino-7-(1-(4-(cyclopropyl(methyl)amino)but-2-enoyl)pyrrolidin-3-yl)-5-(4-phenoxyphenyl)-7H-pyrrolo[2,3-d]pyrimidine-6-carboxamide] | < 100 nM
CN(C)C/C=C/C(=O)N1CC[C@@H](n2c(C#N)c(-c3ccc(Oc4ccccc4)cc3)c3c(N)ncnc32)C1 [Compound 102, (R,E)-4-amino-7-(1-(4-(dimethylamino)but-2-enoyl)pyrrolidin-3-yl)-5-(4-phenoxyphenyl)-7H-pyrrolo[2,3-d]pyrimidine-6-carbonitrile] | < 100 nM
Cc1c(-c2ccc(Cl)cc2)c2c(N)ncnc2n1-c1cccc(N(C)C(=O)/C=C/CN(C)C2CC2)c1 [Compound 48, (E)-N-(3-(4-amino-5-(4-chlorophenyl)-6-methyl-7H-pyrrolo[2,3-d]pyrimidin-7-yl)phenyl)-4-(cyclopropyl(methyl)amino)-N-methylbut-2-enamide] | < 100 nM
CN(C/C=C/C(=O)N1CC[C@@H](n2c(-c3ncco3)c(-c3ccc(Oc4ccccc4)cc3)c3c(N)ncnc32)C1)C1CC1 [Compound 124, (R,E)-1-(3-(4-amino-6-(oxazol-2-yl)-5-(4-phenoxyphenyl)-7H-pyrrolo[2,3-d]pyrimidin-7-yl)pyrrolidin-1-yl)-4-(cyclopropyl(methyl)amino)but-2-en-1-one] | < 100 nM
CN(C/C=C/C(=O)N1CC[C@@H](n2c(N)c(-c3ccc(Oc4ccccc4)cc3)c3c(N)ncnc32)C1)C1CC1 [Compound 162, (R,E)-4-(cyclopropyl(methyl)amino)-1-(3-(4,6-diamino-5-(4-phenoxyphenyl)-7H-pyrrolo[2,3-d]pyrimidin-7-yl)pyrrolidin-1-yl)but-2-en-1-one] | < 100 nM
Cc1c(-c2ccc(Oc3ccccc3)cc2)c2c(N)ncnc2n1[C@@H]1CCN(C(=O)/C=C/CN(C)[C@@H]2CCOC2)C1 [Compound 130, (E)-1-((R)-3-(4-amino-6-methyl-5-(4-phenoxyphenyl)-7H-pyrrolo[2,3-d]pyrimidin-7-yl)pyrrolidin-1-yl)-4-(methyl((R)-tetrahydrofuran-3-yl)amino)but-2-en-1-one] | < 100 nM
COCCN(C/C=C/C(=O)N1CC[C@@H](n2c(C)c(-c3ccc(Oc4ccccc4)cc3)c3c(N)ncnc32)C1)CCOC [Compound 79, (R,E)-1-(3-(4-amino-6-methyl-5-(4-phenoxyphenyl)-7H-pyrrolo[2,3-d]pyrimidin-7-yl)pyrrolidin-1-yl)-4-(bis(2-methoxyethyl)amino)but-2-en-1-one] | < 100 nM
CN(C/C=C/C(=O)N1CC[C@@H](n2c(C#N)c(-c3ccc(Oc4ccccc4)cc3)c3c(N)ncnc32)C1)[C@H]1CCOC1 [Compound 106, 4-amino-7-((R)-1-((E)-4-(methyl((S)-tetrahydrofuran-3-yl)amino)but-2-enoyl)pyrrolidin-3-yl)-5-(4-phenoxyphenyl)-7H-pyrrolo[2,3-d]pyrimidine-6-carbonitrile] | < 100 nM
COc1c(-c2ccc(Oc3cccc(F)c3)cc2)c2c(N)ncnc2n1[C@@H]1CCN(C(=O)/C=C/CN(C)C2CC2)C1 [Compound 92, (R,E)-1-(3-(4-amino-5-(4-(3-fluorophenoxyl)phenyl)-6-methoxy-7H-pyrrolo[2,3-d]pyrimidin-7-yl)pyrrolidin-1-yl)-4-(cyclopropyl(methyl)amino)but-2-en-1-one] | < 100 nM
CCc1c(-c2ccc(Oc3ccccc3)cc2)c2c(N)ncnc2n1[C@@H]1CCN(C(=O)/C=C/CN(C)C2CC2)C1 [Compound 115, (R,E)-1-(3-(4-amino-6-ethyl-5-(4-phenoxyphenyl)-7H-pyrrolo[2,3-d]pyrimidin-7-yl)pyrrolidin-1-yl)-4-(cyclopropyl(methyl)amino)but-2-en-1-one] | 100 to 1000 nM
COCCN(C)C/C=C/C(=O)N1CC[C@@H](n2c(C#N)c(-c3ccc(Oc4ccccc4)cc3)c3c(N)ncnc32)C1 [Compound 104, (R,E)-4-amino-7-(1-(4-((2-methoxyethyl)(methyl)amino)but-2-enoyl)pyrrolidin-3-yl)-5-(4-phenoxyphenyl)-7H-pyrrolo[2,3-d]pyrimidine-6-carbonitrile] | < 100 nM
COCCN(C/C=C/C(=O)N1CC[C@@H](n2c(C#N)c(-c3ccc(Oc4ccccc4)cc3)c3c(N)ncnc32)C1)CCOC [Compound 105, (R,E)-4-amino-7-(1-(4-(bis(2-methoxyethyl)amino)but-2-enoyl)pyrrolidin-3-yl)-5-(4-phenoxyphenyl)-7H-pyrrolo[2,3-d]pyrimidine-6-carbonitrile] | < 100 nM
